From ChEMBL document CHEMBL4229333, “Effects of rigidity on the selectivity of protein kinase inhibitors” (Eur J Med Chem, 2018)

Experiments:
[1] = biological target: Mitogen-activated protein kinase kinase kinase 7 (Homo sapiens) (UniProt O43318); assay: Inhibition of TAK1 (unknown origin) at 1 uM by mobility shift microfluidics platform based assay relative to control
[2] = biological target: Protein kinase C alpha type (Homo sapiens) (UniProt P17252); assay: Inhibition of PKC-alpha (unknown origin) at 1 uM by mobility shift microfluidics platform based assay relative to control
[3] = biological target: Interleukin-1 receptor-associated kinase 1 (Homo sapiens) (UniProt P51617); assay: Inhibition of IRAK1 (unknown origin) at 1 uM by mobility shift microfluidics platform based assay relative to control
[4] = biological target: Phosphorylase b kinase gamma catalytic chain, liver/testis isoform (Homo sapiens) (UniProt P15735); assay: Inhibition of PHK-gamma2 (unknown origin) at 1 uM by mobility shift microfluidics platform based assay relative to control
[5] = biological target: PAS domain-containing serine/threonine-protein kinase (Homo sapiens) (UniProt Q96RG2); assay: Inhibition of PASK (unknown origin) at 1 uM by mobility shift microfluidics platform based assay relative to control
[6] = biological target: Serine/threonine-protein kinase Nek7 (Homo sapiens) (UniProt Q8TDX7); assay: Inhibition of NEK7 (unknown origin) at 1 uM by mobility shift microfluidics platform based assay relative to control
[7] = biological target: Serine/threonine-protein kinase D2 (Homo sapiens) (UniProt Q9BZL6); assay: Inhibition of PRKD2 (unknown origin) at 1 uM by mobility shift microfluidics platform based assay relative to control
Serine/threonine-protein kinase D2 (Homo sapiens), sequence (Q9BZL6 whole entry): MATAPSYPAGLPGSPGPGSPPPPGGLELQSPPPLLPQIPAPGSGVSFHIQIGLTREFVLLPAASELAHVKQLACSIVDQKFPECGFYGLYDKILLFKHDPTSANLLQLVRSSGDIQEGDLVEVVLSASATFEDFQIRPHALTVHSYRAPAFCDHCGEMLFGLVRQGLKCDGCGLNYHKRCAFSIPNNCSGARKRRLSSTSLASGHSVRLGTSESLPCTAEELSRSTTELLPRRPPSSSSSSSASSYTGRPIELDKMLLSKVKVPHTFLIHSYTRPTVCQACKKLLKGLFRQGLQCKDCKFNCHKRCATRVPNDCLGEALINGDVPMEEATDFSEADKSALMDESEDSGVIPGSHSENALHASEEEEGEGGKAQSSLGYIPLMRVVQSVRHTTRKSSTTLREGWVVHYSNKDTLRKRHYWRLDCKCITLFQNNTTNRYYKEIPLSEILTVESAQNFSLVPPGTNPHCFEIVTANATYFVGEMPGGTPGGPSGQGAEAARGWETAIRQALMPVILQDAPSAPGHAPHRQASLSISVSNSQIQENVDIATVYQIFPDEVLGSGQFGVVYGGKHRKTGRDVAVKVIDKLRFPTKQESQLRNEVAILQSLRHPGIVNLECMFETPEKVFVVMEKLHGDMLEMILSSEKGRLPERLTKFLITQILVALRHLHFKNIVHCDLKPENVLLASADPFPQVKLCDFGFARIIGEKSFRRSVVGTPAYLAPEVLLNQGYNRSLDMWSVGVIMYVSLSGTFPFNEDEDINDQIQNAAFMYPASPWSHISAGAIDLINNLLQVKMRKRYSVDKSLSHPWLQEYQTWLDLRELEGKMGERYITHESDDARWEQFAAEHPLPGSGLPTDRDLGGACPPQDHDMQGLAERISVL

[8] = biological target: cGMP-dependent protein kinase 1 (Homo sapiens) (UniProt Q13976); assay: Inhibition of PRKG1 (unknown origin) at 1 uM by mobility shift microfluidics platform based assay relative to control
[9] = biological target: Tyrosine-protein kinase receptor UFO (Homo sapiens) (UniProt P30530); assay: Inhibition of AXL (unknown origin) at 1 uM by mobility shift microfluidics platform based assay relative to control
[10] = biological target: Tyrosine-protein kinase ABL1 (Homo sapiens, UniProt P00519); assay: Inhibition of ABL1 (unknown origin) at 1 uM by mobility shift microfluidics platform based assay relative to control
[11] = biological target: RAC-gamma serine/threonine-protein kinase (Homo sapiens) (UniProt Q9Y243); assay: Inhibition of AKT3 (unknown origin) at 1 uM by mobility shift microfluidics platform based assay relative to control
[12] = biological target: Serine/threonine-protein kinase 16 (Homo sapiens) (UniProt O75716); assay: Inhibition of STK16 (unknown origin) at 1 uM by mobility shift microfluidics platform based assay relative to control
[13] = biological target: Platelet-derived growth factor receptor alpha (Homo sapiens) (UniProt P16234); assay: Inhibition of PDGFR-alpha (unknown origin) at 1 uM by mobility shift microfluidics platform based assay relative to control
[14] = biological target: Serine/threonine-protein kinase MARK2 (Homo sapiens) (UniProt Q7KZI7); assay: Inhibition of PAR-1B-alpha (unknown origin) at 1 uM by mobility shift microfluidics platform based assay relative to control
[15] = biological target: Ribosomal protein S6 kinase beta-2 (Homo sapiens) (UniProt Q9UBS0); assay: Inhibition of P70S6K2 (unknown origin) at 1 uM by mobility shift microfluidics platform based assay relative to control
Ribosomal protein S6 kinase beta-2 (Homo sapiens), sequence (Q9UBS0 whole entry): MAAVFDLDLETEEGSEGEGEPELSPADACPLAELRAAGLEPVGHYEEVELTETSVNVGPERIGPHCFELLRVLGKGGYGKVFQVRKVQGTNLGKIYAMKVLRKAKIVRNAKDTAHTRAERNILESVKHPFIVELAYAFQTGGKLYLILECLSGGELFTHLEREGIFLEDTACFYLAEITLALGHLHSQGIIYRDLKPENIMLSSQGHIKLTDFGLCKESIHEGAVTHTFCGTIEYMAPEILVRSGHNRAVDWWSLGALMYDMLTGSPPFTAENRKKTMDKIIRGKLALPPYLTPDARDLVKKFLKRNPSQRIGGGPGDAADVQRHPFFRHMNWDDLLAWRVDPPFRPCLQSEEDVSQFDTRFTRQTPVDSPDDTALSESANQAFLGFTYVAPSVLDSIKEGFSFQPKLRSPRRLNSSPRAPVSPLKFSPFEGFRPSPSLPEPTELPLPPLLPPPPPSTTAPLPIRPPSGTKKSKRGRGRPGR

[16] = biological target: STE20-like serine/threonine-protein kinase (Homo sapiens) (UniProt Q9H2G2); assay: Inhibition of SLK (unknown origin) at 1 uM by mobility shift microfluidics platform based assay relative to control
[17] = biological target: Serine/threonine-protein kinase PLK4 (Homo sapiens) (UniProt O00444); assay: Inhibition of PLK4 (unknown origin) at 1 uM by mobility shift microfluidics platform based assay relative to control
[18] = biological target: Serine/threonine-protein kinase DCLK2 (Homo sapiens) (UniProt Q8N568); assay: Inhibition of DCAMKL2 (unknown origin) at 1 uM by mobility shift microfluidics platform based assay relative to control
[19] = biological target: Muscle, skeletal receptor tyrosine-protein kinase (Homo sapiens) (UniProt O15146); assay: Inhibition of MUSK (unknown origin) at 1 uM by mobility shift microfluidics platform based assay relative to control
[20] = biological target: Serine/threonine-protein kinase Nek6 (Homo sapiens) (UniProt Q9HC98); assay: Inhibition of NEK6 (unknown origin) at 1 uM by mobility shift microfluidics platform based assay relative to control
Serine/threonine-protein kinase Nek6 (Homo sapiens), sequence (Q9HC98 whole entry): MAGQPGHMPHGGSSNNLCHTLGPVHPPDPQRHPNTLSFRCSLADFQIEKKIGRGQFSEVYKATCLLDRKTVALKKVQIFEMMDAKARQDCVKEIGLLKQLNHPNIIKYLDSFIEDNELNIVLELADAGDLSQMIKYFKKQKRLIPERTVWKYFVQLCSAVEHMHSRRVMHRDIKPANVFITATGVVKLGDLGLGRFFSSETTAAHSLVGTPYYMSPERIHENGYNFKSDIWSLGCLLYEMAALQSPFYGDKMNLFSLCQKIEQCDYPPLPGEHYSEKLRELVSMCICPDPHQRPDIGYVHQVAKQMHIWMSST

[21] = biological target: Rho-associated protein kinase 2 (Homo sapiens) (UniProt O75116); assay: Inhibition of ROCK2 (unknown origin) at 1 uM by mobility shift microfluidics platform based assay relative to control
Rho-associated protein kinase 2 (Homo sapiens), sequence (O75116 whole entry, looked up): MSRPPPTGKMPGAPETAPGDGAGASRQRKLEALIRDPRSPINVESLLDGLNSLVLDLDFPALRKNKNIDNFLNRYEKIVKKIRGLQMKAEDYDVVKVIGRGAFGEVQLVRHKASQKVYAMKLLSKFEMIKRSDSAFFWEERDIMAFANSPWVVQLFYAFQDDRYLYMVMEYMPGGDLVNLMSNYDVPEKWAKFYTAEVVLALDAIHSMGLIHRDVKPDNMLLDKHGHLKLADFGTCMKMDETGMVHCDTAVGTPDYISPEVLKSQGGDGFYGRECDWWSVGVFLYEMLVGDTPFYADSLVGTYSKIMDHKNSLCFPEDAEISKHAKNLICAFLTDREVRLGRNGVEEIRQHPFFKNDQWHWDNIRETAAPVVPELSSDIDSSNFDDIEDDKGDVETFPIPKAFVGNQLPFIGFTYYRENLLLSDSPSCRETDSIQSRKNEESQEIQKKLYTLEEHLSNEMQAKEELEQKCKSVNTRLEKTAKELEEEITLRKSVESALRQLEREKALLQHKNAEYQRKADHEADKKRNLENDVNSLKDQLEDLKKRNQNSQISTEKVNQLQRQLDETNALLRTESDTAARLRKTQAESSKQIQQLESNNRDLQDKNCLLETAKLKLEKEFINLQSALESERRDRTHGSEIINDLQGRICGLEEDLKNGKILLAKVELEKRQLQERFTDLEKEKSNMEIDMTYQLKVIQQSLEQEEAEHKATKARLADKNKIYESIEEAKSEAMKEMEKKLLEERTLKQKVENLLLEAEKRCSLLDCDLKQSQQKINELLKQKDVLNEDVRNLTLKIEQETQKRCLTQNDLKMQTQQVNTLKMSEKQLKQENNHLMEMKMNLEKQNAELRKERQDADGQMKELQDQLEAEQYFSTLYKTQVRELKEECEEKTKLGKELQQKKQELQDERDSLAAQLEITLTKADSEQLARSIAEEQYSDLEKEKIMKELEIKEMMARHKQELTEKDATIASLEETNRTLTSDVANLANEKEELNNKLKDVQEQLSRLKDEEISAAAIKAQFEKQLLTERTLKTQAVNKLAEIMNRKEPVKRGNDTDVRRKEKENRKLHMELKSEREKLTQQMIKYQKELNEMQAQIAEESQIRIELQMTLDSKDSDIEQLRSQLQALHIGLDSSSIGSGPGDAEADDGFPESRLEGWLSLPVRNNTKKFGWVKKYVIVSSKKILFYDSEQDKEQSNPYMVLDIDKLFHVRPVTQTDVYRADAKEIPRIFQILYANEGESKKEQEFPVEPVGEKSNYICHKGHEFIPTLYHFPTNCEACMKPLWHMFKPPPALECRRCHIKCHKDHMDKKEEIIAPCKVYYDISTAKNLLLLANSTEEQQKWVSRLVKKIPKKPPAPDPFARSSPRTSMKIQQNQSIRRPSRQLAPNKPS

[22] = biological target: Ribosomal protein S6 kinase alpha-4 (Homo sapiens) (UniProt O75676); assay: Inhibition of MSK2 (unknown origin) at 1 uM by mobility shift microfluidics platform based assay relative to control
Ribosomal protein S6 kinase alpha-4 (Homo sapiens), sequence (O75676 whole entry, looked up): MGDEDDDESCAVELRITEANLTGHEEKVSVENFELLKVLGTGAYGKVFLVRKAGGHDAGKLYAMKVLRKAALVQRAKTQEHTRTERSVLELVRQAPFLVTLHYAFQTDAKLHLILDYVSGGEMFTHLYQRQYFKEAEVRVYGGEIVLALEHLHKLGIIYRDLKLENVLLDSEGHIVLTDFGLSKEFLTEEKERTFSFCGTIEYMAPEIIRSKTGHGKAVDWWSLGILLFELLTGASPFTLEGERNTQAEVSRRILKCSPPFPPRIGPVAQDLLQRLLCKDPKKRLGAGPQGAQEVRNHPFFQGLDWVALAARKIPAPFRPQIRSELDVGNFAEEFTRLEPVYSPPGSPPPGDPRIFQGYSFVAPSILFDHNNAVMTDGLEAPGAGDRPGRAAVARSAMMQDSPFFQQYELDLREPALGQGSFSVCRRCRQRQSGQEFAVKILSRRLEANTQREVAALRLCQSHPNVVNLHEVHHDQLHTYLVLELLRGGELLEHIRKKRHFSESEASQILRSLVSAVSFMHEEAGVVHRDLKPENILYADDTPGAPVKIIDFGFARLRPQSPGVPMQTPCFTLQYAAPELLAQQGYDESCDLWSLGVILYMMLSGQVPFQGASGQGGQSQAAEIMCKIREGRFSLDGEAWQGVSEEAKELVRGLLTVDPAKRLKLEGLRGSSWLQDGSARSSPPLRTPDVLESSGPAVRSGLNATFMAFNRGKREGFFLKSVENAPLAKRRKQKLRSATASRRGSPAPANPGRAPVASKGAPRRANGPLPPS

[23] = biological target: Calcium/calmodulin-dependent protein kinase type IV (Homo sapiens) (UniProt Q16566); assay: Inhibition of CAMK4 (unknown origin) at 1 uM by mobility shift microfluidics platform based assay relative to control
[24] = biological target: Serine/threonine-protein kinase MARK1 (Homo sapiens) (UniProt Q9P0L2); assay: Inhibition of MARK1 (unknown origin) at 1 uM by mobility shift microfluidics platform based assay relative to control
[25] = biological target: Dual specificity tyrosine-phosphorylation-regulated kinase 4 (Homo sapiens) (UniProt Q9NR20); assay: Inhibition of DYRK4 (unknown origin) at 1 uM by mobility shift microfluidics platform based assay relative to control
[26] = biological target: Serine/threonine-protein kinase Sgk3 (Homo sapiens) (UniProt Q96BR1); assay: Inhibition of SGK3 (unknown origin) at 1 uM by mobility shift microfluidics platform based assay relative to control
[27] = biological target: NT-3 growth factor receptor (Homo sapiens) (UniProt Q16288); assay: Inhibition of TRKC (unknown origin) at 1 uM by mobility shift microfluidics platform based assay relative to control
[28] = tested on: Serine/threonine-protein kinase B-raf (Homo sapiens), P15056 [V600E]; assay: Ratio of IC50 for inhibition of BRAF V600E mutant (unknown origin) after 20 mins by immunoblotting assay to IC50 for inhibition of full length FLAG-tagged BRAF V600E mutant (unknown origin) expressed in HEK293 cells assessed as decrease in MEK phosphorylation by immunoblotting assay; type: cell-based
[29] = biological target: Protein kinase C gamma type (Homo sapiens) (UniProt P05129); assay: Inhibition of PKC-gamma (unknown origin) at 1 uM by mobility shift microfluidics platform based assay relative to control
[30] = biological target: Casein kinase I isoform gamma-1 (Homo sapiens) (UniProt Q9HCP0); assay: Inhibition of CK1-gamma1 (unknown origin) at 1 uM by mobility shift microfluidics platform based assay relative to control
Casein kinase I isoform gamma-1 (Homo sapiens), sequence (Q9HCP0 whole entry, looked up, canonical isoform): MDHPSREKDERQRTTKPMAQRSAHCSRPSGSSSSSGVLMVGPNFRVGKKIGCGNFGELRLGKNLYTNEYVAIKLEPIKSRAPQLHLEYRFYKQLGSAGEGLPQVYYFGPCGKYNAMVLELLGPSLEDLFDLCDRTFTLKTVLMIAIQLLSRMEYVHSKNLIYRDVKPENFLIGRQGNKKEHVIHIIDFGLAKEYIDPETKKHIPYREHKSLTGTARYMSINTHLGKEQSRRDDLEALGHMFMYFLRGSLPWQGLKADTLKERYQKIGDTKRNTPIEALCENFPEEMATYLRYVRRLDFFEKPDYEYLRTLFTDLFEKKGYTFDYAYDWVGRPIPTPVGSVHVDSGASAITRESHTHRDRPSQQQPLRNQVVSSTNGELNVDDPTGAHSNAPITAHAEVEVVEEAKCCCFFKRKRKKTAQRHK

[31] = biological target: cAMP-dependent protein kinase catalytic subunit beta (Homo sapiens) (UniProt P22694); assay: Inhibition of PKACB (unknown origin) at 1 uM by mobility shift microfluidics platform based assay relative to control
[32] = biological target: Protein-tyrosine kinase 6 (Homo sapiens) (UniProt Q13882); assay: Inhibition of BRK (unknown origin) at 1 uM by mobility shift microfluidics platform based assay relative to control
[33] = biological target: Ribosomal protein S6 kinase alpha-1 (Homo sapiens) (UniProt Q15418); assay: Inhibition of RSK1 (unknown origin) at 1 uM by mobility shift microfluidics platform based assay relative to control

Mitogen-activated protein kinase kinase kinase 7 (Homo sapiens), sequence (O43318 whole entry): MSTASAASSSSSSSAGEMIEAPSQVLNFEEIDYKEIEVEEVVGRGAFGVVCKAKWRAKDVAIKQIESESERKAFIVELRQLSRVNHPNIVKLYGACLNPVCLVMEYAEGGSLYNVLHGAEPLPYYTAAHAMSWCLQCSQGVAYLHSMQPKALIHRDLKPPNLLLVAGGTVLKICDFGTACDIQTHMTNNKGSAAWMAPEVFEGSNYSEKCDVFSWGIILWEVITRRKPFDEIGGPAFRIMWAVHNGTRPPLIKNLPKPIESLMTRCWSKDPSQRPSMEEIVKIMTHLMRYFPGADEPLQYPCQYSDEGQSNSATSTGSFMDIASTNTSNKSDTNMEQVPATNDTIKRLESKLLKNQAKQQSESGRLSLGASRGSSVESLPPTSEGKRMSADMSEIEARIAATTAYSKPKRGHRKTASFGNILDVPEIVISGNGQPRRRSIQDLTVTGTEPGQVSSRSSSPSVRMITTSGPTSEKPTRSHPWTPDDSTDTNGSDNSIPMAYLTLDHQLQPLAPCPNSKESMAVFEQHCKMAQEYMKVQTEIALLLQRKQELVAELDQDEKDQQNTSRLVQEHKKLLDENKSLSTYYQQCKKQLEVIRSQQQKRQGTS

| Structure (SMILES) | inhibition [1] | inhibition [2] | inhibition [3] | inhibition [4] | inhibition [5] | inhibition [6] | inhibition [7] | inhibition [8] | inhibition [9] | inhibition [10] | inhibition [11] | inhibition [12] | inhibition [13] | inhibition [14] | inhibition [15] | inhibition [16] | inhibition [17] | inhibition [18] | inhibition [19] | inhibition [20] | further results |
| --- | --- | --- | --- | --- | --- | --- | --- | --- | --- | --- | --- | --- | --- | --- | --- | --- | --- | --- | --- | --- | --- |
| CC(C)n1nc(C#Cc2cccc3cc(-c4cccc(C(F)(F)F)c4)ncc23)c2c(N)ncnc21 | 5% | 2% | -3% | 4% | 1% | -2% | 2% | 1% | 2% | 96% | 3% | 2% | 94% | 0% | 3% | 18% | 5% | -1% | 3% | -5% | inhibition [21]: 4%; inhibition [22]: 5%; inhibition [23]: 6%; inhibition [24]: -2%; inhibition [25]: -7%; inhibition [26]: -3%; inhibition [27]: 14%; Ratio IC50 [28]: 2 to 4; inhibition [29]: 2%; inhibition [30]: -5%; inhibition [31]: 3%; inhibition [32]: 86%; inhibition [33]: 1% |
| CC(C)n1nc(C#Cc2cccc(NC(=O)c3cccc(C(F)(F)F)c3)c2)c2c(N)ncnc21 | 62% | -7% | 28% | -8% | -4% | 1% | 1% | 1% | 12% | 98% | 2% | 8% | 100% | 0% | 5% | 92% | 74% | 0% | 8% | 0% | inhibition [21]: 18%; inhibition [22]: 3%; inhibition [23]: 11%; inhibition [24]: 1%; inhibition [25]: -1%; inhibition [26]: -2%; inhibition [27]: 59%; Ratio IC50 [28]: 2 to 4; inhibition [29]: -1%; inhibition [30]: 9%; inhibition [31]: 2%; inhibition [32]: 97%; inhibition [33]: 9% |
